The source of these data is ChEMBL document CHEMBL3045712, “Insect antifeedant and growth regulating activities of salannobutyrolactone and desacetylsalannobutyrolactone” (2005).

Holding throughout (format): functional
The subject of assay [1] is Spodoptera litura. In words: Insecticidal activity against third-instar larval stage of Spodoptera litura fed on compound-treated castor leaves assessed as total larval duration time at 10 ug/cm2 (reference value: 12.7 +/- 0.89 days).
Assay [2] deals with Spodoptera litura. In words: Insecticidal activity against third-instar larval stage of Spodoptera litura fed on compound-treated castor leaves assessed as pupal mortality at 10 ug/cm2 (reference value: 4.17%).
The test system of assay [3] is Spodoptera litura. In words: Insecticidal activity against third-instar larval stage of Spodoptera litura fed on compound-treated castor leaves assessed as pupal duration time at 10 ug/cm2 (reference value: 8.1 +/- 0.14 days).
For assay [4], the system named is Spodoptera litura. As to the kind of experiment: Antifeedant activity against third-instar larval stage of Spodoptera litura fed on compound-treated castor leaves assessed as feeding deterrence index at 5 ug/cm2 by dual choice leaf disc method.
Assay [5] deals with Spodoptera litura. In words: Antifeedant activity against third-instar larval stage of Spodoptera litura fed on compound-treated castor leaves assessed as feeding deterrence index at 10 ug/cm2 by dual choice leaf disc method.
Assay [6] has as its system Spodoptera litura. In words: Insecticidal activity against third-instar larval stage of Spodoptera litura fed on compound-treated castor leaves assessed as larval mortality at 10 ug/cm2 (reference value: 4%).
Assay [7] relates to Spodoptera litura. In words: Insecticidal activity against third-instar larval stage of Spodoptera litura fed on compound-treated castor leaves assessed as total larval duration time at 5 ug/cm2 (reference value: 12.7 +/- 0.89 days).
Assay [8] deals with Spodoptera litura. In words: Insecticidal activity against third-instar larval stage of Spodoptera litura fed on compound-treated castor leaves assessed as pupal duration time at 5 ug/cm2 (reference value: 8.1 +/- 0.14 days).
The test system of assay [9] is Spodoptera litura. In words: Insecticidal activity against third-instar larval stage of Spodoptera litura fed on compound-treated castor leaves assessed as pupal mortality at 5 ug/cm2 (reference value: 4.17%).
The subject of assay [10] is Spodoptera litura. In words: Insecticidal activity against third-instar larval stage of Spodoptera litura fed on compound-treated castor leaves assessed as larval mortality at 5 ug/cm2 (reference value: 4%).

Take `C/C=C(\C)C(=O)O[C@H]1C[C@@H](OC(C)=O)[C@@]2(C(=O)OC)CO[C@H]3[C@@H](O)[C@@](C)([C@]45O[C@@]4(C)[C@@H]4C[C@H]5O[C@@H]5OC=C[C@@]54O)[C@H]4[C@]1(CO[C@]4(O)C(=O)OC)[C@@H]32` [AZADIRACHTIN A]: the Time in [1] stood at 16.3 days; in assay [3] it was 10.14 days; in assay [7] it was 15 days; in assay [8], 9.8 days. For the same compound, the mortality at 10 µg/cm2 in assay [2] was determined as 40%; in [6], 64%. Besides, the FDI in assay [4] is given as 15.62%; in assay [5] it was 12.59%. For the same compound, the mortality at 5 µg/cm2 in assay [9] worked out at 33.2%.

With `C/C=C(\C)C(=O)O[C@H]1C[C@@H](OC(C)=O)[C@@]2(C)CO[C@H]3[C@H]4O[C@@H]5C[C@@H](C6=CCOC6=O)C(C)=C5[C@@]4(C)[C@H](CC(=O)OC)[C@]1(C)[C@@H]32` [SALANNOBUTYROLACTONE], the Time in assay [1] stood at 15.5 days; in [3] it was 9.4 days; in assay [7], 14 days; in [8], 8.7 days. The mortality at 10 µg/cm2 was 37.2% in assay [2] and 52% in assay [6]. The mortality at 5 µg/cm2 in assay [10] came out at 32%; in assay [9], 30.2%. In addition, the figures for the FDI in [4] and in assay [5] were 39.34% and 36.69%, respectively.

For `C/C=C(\C)C(=O)O[C@H]1C[C@@H](O)[C@@]2(C)CO[C@H]3[C@H]4O[C@@H]5C[C@@H](C6=CCOC6=O)C(C)=C5[C@@]4(C)[C@H](CC(=O)OC)[C@]1(C)[C@@H]32` [DESACETYLSALANNOBUTYROLACTONE], the Time in assay [1] amounted to 14.4 days; in assay [3], 8.6 days; in [7] it was 13.1 days; in assay [8] it was 8.41 days. Moreover, the mortality at 10 µg/cm2 in [2] stood at 33.3%; in assay [6] it was 40%. The mortality at 5 µg/cm2 in assay [10] worked out at 24%; in assay [9], 27.3%. For the same compound, the FDI is listed as 50.45% in assay [4] and 47.97% in assay [5].

As a reminder, the mortality is the share of the test organisms that died.
